Assay results taken from patent US8715621B2, “Radical polarizing agents for dynamic nuclear polarization” (Massachusetts Institute of Technology, priority 2012, dated 2014).

Columns and labels:
[1] = Solubility in water / aqueous media; type: physicochemical
Stability in air = type: physicochemical
[2] = EPR spectrum: line width, aggregation, dimerization; conditions: solution, glass or solid

solubility in water / aqueous media [1]: lack of solubility in aqueous media
air stability (Stability in air): air stable
aggregate formation or radical dimerization [2]: no dimerization in solid or in solution
Substance: 1,3-bisdiphenylene-2-phenylallyl [BDPA]
